According to article PMC5515887, “Ruthenium-conjugated chrysin analogues modulate platelet activity, thrombus formation and haemostasis with enhanced efficacy” (Scientific Reports, 2017):

Tests used:
[1] = test system: human platelet-rich plasma (PRP); test: CRP-XL-induced platelet aggregation in human platelet-rich plasma (optical aggregometry); type: cell-based; settings: PRP, CRP-XL 0.5 μg/mL
Procedure: Therefore, to determine the effects of various concentrations of chrysin and its derivatives in the presence of plasma proteins, aggregation assays were performed using human platelet-rich plasma (PRP) and 0.5 μg/mL CRP-XL.
Figure 3 Impact of chrysin and its derivatives on platelet activation in platelet-rich plasma. […] The platelet aggregation was monitored for 5 minutes. The traces shown are representative of three separate experiments.
(§1) The preparation of human platelets and aggregation assays were performed using standard protocols as described by us previously, [16]. Briefly, human blood was collected in 3.2% citrate containing vacutainers via venepuncture from healthy, aspirin-free individuals with informed consent in accordance with the methods approved by the University of Reading Research Ethics Committee. All methods were performed in accordance with the relevant institutional and national guidelines and regulations. Blood samples were centrifuged at 102 g for 20 minutes at room temperature to separate the PRP, which was used in aggregation, flow cytometry, static platelet adhesion, calcium mobilisation and clot retraction assays. For the preparation of washed platelets, 50 mL of blood samples were mixed with 7.5 mL of ACD (acid citrate dextrose) (20 g/L glucose, 25 g/L sodium citrate and 15 g/L citric acid) and centrifuged at 102 g for 20 minutes at room temperature. The PRP was carefully aspirated from the other blood cells prior to mixing with 3 mL of ACD and centrifuging at 1413 g for 10 minutes at room temperature. The resulting platelet pellet was re-suspended in modified Tyrodes-HEPES buffer (2.9 mM KCl, 134 mM NaCl, 0.34 mM Na2HPO4.12H20, 1 mM MgCl2, 12 mM NaHCO3, 20 mM HEPES, pH 7.3) and washed by centrifuging again at 1413 g for 10 minutes. The resulting platelet pellet was suspended in modified Tyrodes-HEPES buffer at a density of 4 × 10^8 cells/mL for aggregation, dense granule secretion, cellular uptake studies and calcium mobilisation assays. Human platelet aggregation was performed using CRP-XL as an agonist in the presence and absence of various concentrations of chrysin and its synthetic derivatives by optical aggregometry. A vehicle control [DMSO at a concentration of less than 0.1% (v/v)] was included in all the experiments. Dense granule secretion in platelets was determined by measuring the ATP release using the luciferin-luciferase reagent by lumi-aggregometry (Chrono-Log, USA). SDS-PAGE and immunoblotting analysis were performed using standard protocols. The rabbit anti-phospho-specific antibodies for human AKT pS473, FAK pY397 and Src pY527 were obtained from Abcam, UK and rabbit anti-human 14-3-3ζ (Santa Cruz Biotechnology, USA) was used to detect protein 14-3-3ζ as a loading control in immunoblot assays. The Cy5-conjugated goat anti-rabbit IgG (Life technologies, UK) was used as the secondary antibody.

[2] = test system: human washed platelets; test: CRP-XL-induced aggregation of human washed platelets (optical aggregometry); type: cell-based; settings: CRP-XL 0.5 μg/mL
Procedure: To determine the effects of chrysin and thio-chrysin and their Ru-complexes in the modulation of platelet activation, aggregation assays were performed using cross-linked collagen-related peptide (CRP-XL) as a platelet agonist, by optical aggregometry. Firstly, to determine the effects of chrysin and its derivatives on isolated platelets, aggregation assays were performed using human washed platelets (devoid of plasma proteins and other blood cells).
Figure 2 Effects of chrysin and its derivatives in washed platelet aggregation. […] The aggregation traces shown are representative of three separate experiments.
as §1

[3] = test system: outside-in signalling by integrin αIIbβ3; test: Clot retraction assay (outside-in signalling by integrin αIIbβ3); type: cell-based, human; settings: PRP; 50 μM compound; 1 U/mL thrombin; three hours
Procedure: R represents ‘resting’ platelets.
Following fibrinogen binding, integrin αIIbβ3 triggers signalling into the platelets in order to induce clot retraction and promote wound healing. This also represents a late downstream signalling event in the platelet activation process. To determine whether chrysin and its derivatives affect outside-in signalling by integrin αIIbβ3, a clot retraction assay was performed. […] At three hours, the clot obtained with the vehicle control [0.1% (v/v) DMSO] retracted to around 50 mg.
PRP (200 µL) was mixed with 5 µL of red blood cells and the final volume was made to 950 µL with modified Tyrodes-HEPES buffer in the presence and absence of various concentrations of chrysin or its synthetic derivatives. Clot formation was initiated by adding 1 U/mL (50 µL) thrombin. A glass capillary was placed in middle of the tube and the clot retraction was observed over a period of 3 hours at room temperature. Clot weight was measured as a marker for clot retraction after 3 hours.

[4] = test system: α-granule secretion in platelets; test: P-selectin exposure by flow cytometry (marker for α-granule secretion); type: cell-based, human; settings: PRP; CRP-XL 0.5 μg/mL
Procedure: Platelets primarily contain two types of granules (α- and dense granules) and the activation of platelets releases the granule contents to the external environment, where they play important roles in the stimulation of additional platelets and their recruitment to the growing thrombus. […] However, chrysin affected α-granule secretion only at a minimum concentration of 50 μM in platelets.
Figure 5 Chrysin and its derivatives affect granule secretion in platelets. […] The level of P-selectin (as a marker for α-granule secretion) was quantified using PECy5-labelled anti-human P-selectin antibodies by flow cytometry. […] R represents ‘resting’ platelets. […] Platelets were then activated with 0.5 μg/mL CRP-XL and the ATP release was monitored for 5 minutes by lumi-aggregometry. The traces shown are representative of three separate experiments.

[5] = test system: inside-out signalling to integrin αIIbβ3; settings: PRP; CRP-XL 0.5 μg/mL
Procedure: The level of fluorescence obtained with vehicle control was taken as 100% to calculate the extent of inhibition in chrysin and its derivatives-treated samples. R represents ‘resting’ platelets. Cumulative data represent mean ± S.D. (n = 4). […] Following incubation, clotting was initiated by the addition of 1 U/mL thrombin and the clot retraction was monitored for three hours. The remaining clot weight at three hours was measured to analyse the extent of retraction process. The image shown on the right is representative of four separate experiments. *Indicates significance with respect to controls and ^#indicates significance with respect to the respective chrysin concentrations; p values shown (*^,# p < 0.05, **^,## p < 0.01 and ***^,### p < 0.001) are as calculated by one-way ANOVA using Graphpad Prism.
The platelets (PRP) were treated with a vehicle control [0.1% (v/v) DMSO] or with different concentrations of chrysin and its synthetic derivatives prior to activation with CRP-XL (0.5 µg/mL). The levels of fibrinogen binding and P-selectin exposure were measured using FITC-labelled anti-human fibrinogen antibodies (Dako, UK) and PECy5-labelled CD62P antibodies (BD Biosciences, UK), respectively. The median fluorescence intensity was used to assess the levels of fibrinogen binding and P-selectin exposure on the platelet surface. The level of fluorescence obtained with the vehicle control was taken as 100% when compared with the treated samples.

Compound	effect on platelet aggregation in PRP [1]	effect on CRP-XL-induced platelet aggregation in washed platelets [2]	effect on clot retraction [3]	concentrations that significantly inhibit α-granule secretion [4] [µM]	concentrations with significantly more effects on fibrinogen binding than the respective concentrations of chrysin [5]	effect on platelet aggregation at lower concentrations ([1]; 6.25 μM and 12.5 μM compound)
Cc1ccc(C(C)C)cc1.Cc1ccc(C(C)C)cc1.[Cl-].[Cl-].[Cl-].[Cl-].[Ru+2].[Ru+2] [Ru-Cl, bis [dichlorido (η^6-p-cymene)] ruthenium(II), reference compound]	failed to show any inhibitory effects	failed to affect platelet aggregation	–	–	–	–
Oc1cc(O)c2c(=S)cc(-c3ccccc3)oc2c1 [thio-chrysin]	–	no significant differences	significant inhibitory effect	≥ 25	–	–
chlorido [(5-oxo-κO)-7-hydroxy-(2-phenyl)-4H-chromen-4-onato-κO] (η6-p-cymene)ruthenium(II) [Ru-chrysin]	–	inhibited CRP-XL-induced platelet aggregation in a concentration-dependent manner	–	≥ 25	more than 25 μM	did not significantly affect the platelet aggregation
